“Also recorded” adds a separate entry of the source. Where no end group is shown, it is not given here.
What was measured:
C. albicans = assay: microbicidal suspension assay; assay type: cell-based
Protocol: (§1) Antimicrobial assay. E. coli ML35, S. aureus 502A, C. albicans, and C. neoformans were used as target organisms in a microbicidal suspension assay as previously described (Selsted, M. E., Genetic Engineering: Principles and Methods, J. K. Setlow, Plenum Press, New York, 1993, pp. 131-147).
(§2) Natural and synthetic BGP-A and synthetic BGP-A-amide were tested for their microbicidal activities against S. aureus 502A, E. coli ML35, C. albicans, and C. neoformans. Using a microbicidal suspension assay (Selsted, M. E., Genetic Engineering: Principles and Methods, J. K. Setlow, Plenum Press, New York, 1993, pp.131-147), each peptide was tested against the four test organisms with peptide concentrations ranging from 5-100 μg/ml. The bactericidal and fungicidal activities of the three peptide preparations were assessed using a standard microbicidal assay. Organisms were grown to mid-log phase, harvested, and suspended to 2×10^7 CFU/ml. The incubation mixture contained 1-2×10^6 CFU/ml, 10 mM sodium phosphate buffer, pH 7.4, and peptide at concentrations up to 100 μg/ml. After 1 h of incubation at 37° C. (4 h incubations for C. neoformans), serial 10-fold dilutions were plated on Trypticase Soy Agar (bacteria) or S. abaraud dextrose agar (fungi), and incubated for 24-48 h at 37° C. Killing was quantitated by colony counting, and plotted as a function of peptide concentration in the incubation.

E. coli ML35 = assay: microbicidal suspension assay; assay type: cell-based
Protocol: as §1, §2

C. neoformans = assay: microbicidal suspension assay; assay type: cell-based
Protocol: as §1, §2

S. aureus 502A = assay: microbicidal suspension assay; assay type: cell-based
Protocol: as §1, §2

E. coli = conditions: Selsted et al., J. Biol. Chem. 267:4292-4295, 1992; cited from earlier work
S. aureus = conditions: Selsted et al., J. Biol. Chem. 267:4292-4295, 1992; cited from earlier work
[1] = 1 h incubation, synthetic versus natural peptide, listed as synthetic BGP-A
[2] = peptide 5-100 μg/ml, 10 mM sodium phosphate buffer, pH 7.4, 1 h at 37° C., FIG. 7

Substance	microbicidal potency compared with natural BGP-A (C. albicans; [1])	microbicidal activity (reduction in colony forming units) (C. albicans; [2])	microbicidal potency compared with natural BGP-A (E. coli ML35; [1])	microbicidal activity (reduction in colony forming units) (E. coli ML35; [2])	microbicidal potency compared with natural BGP-A (C. neoformans; 4 h incubation, synthetic versus natural peptide, listed as synthetic BGP-A)	microbicidal activity (reduction in colony forming units) (C. neoformans; peptide 5-100 μg/ml, 10 mM sodium phosphate buffer, pH 7.4, 4 h at 37° C., FIG. 7)	microbicidal potency compared with natural BGP-A (S. aureus 502A; [1])	microbicidal activity (reduction in colony forming units) (S. aureus 502A; [2])	bactericidal activity (E. coli)	bactericidal activity (S. aureus)
YKIIQQWPHYRRV [BGP-A, thirteen-residue peptide antibiotic expressed in bovine granulocytes, …; tested as natural and synthetic preparations]	equal in potency; also recorded: equivalent killing activity	microbicidal	equal in potency; also recorded: equivalent killing activity	microbicidal	equal in potency; also recorded: equivalent killing activity	microbicidal	equal in potency; also recorded: equivalent killing activity	microbicidal		
indolicidin: novel tridecapeptide amide from bovine neutrophils, cationic, unusually rich in tryptophan (ILPWKWPWWPWRR-NH2; UniProt P33046 131-143, looked up)									potent bactericidal activity	potent bactericidal activity

Source: US6696559B1, “Antimicrobial peptides and methods of use” (The Regents of the University of California, priority 1996, dated 2004)
